This is an account of results in DBAASP.

What all share (test): ≥ marks a high value that may be exact or a test limit, other limits are often not marked, values filed in µg/mL are converted to µM
The test system of assay [1] is Staphylococcus aureus ATCC 25923.
Assay [2] has as its system Candida albicans ATCC 10231.
Assay [3] deals with Bacillus subtilis ATCC 6633.
Assay [4] relates to Escherichia coli ATCC 25922.
For assay [5], the system named is Candida albicans ATCC 2002.
The test system of a further assay is Acinetobacter baumannii.
Assay [6] relates to Candida albicans ATCC 90028.
Another assay has as its system Staphylococcus aureus.
The subject of assay [7] is Pseudomonas aeruginosa ATCC 9027.
Assay [8] deals with Staphylococcus aureus ATCC 6538.
Assay [9] has as its system Staphylococcus epidermidis.
Assay [10] relates to Klebsiella pneumoniae ATCC 700603.

Converted amounts (≈) assume the structure as drawn. A value given as a limit tells only on which side of the number the result lay.

`CC(C)C[C@H](NC(=O)[C@@H]1CCCN1C(=O)[C@H](CCCCN)NC(=O)[C@@H]1CCCN1C(=O)[C@H](Cc1ccc(O)cc1)NC(=O)[C@H](CCCCN)NC(=O)[C@H](Cc1c[nH]c2ccccc12)NC(=O)[C@H](CCCN=C(N)N)NC(=O)[C@@H](N)Cc1ccccc1)C(=O)N[C@@H](CCCCN)C(=O)N[C@@H](CCCN=C(N)N)C(=O)O` [FRWKYPKPLKR]: the MIC (as a rule, the lowest concentration that inhibits growth of the organism) was greater than 65.8 µM in assay [1], greater than 65.8 µM in assay [2], no less than 65.8 µM in [3] and greater than 65.8 µM in assay [4].

In [5], `CC[C@H](C)[C@H](NC(=O)[C@@H](NC(=O)[C@@H](NC(=O)[C@@H]1CCCN1C(=O)[C@H](Cc1c[nH]c2ccccc12)NC(=O)[C@H](Cc1ccccc1)NC(=O)[C@H](CCCN=C(N)N)NC(=O)[C@H](CCCCN)NC(=O)[C@@H](NC(=O)[C@@H](N)CCCN=C(N)N)[C@@H](C)CC)C(C)C)C(C)C)C(=O)N[C@@H](CCCN=C(N)N)C(=O)N[C@H](C(=O)N[C@H](C(=O)N[C@H](C(=O)N[C@@H](C)C(=O)NCC(=O)N[C@@H](Cc1ccc(O)cc1)C(=O)N[C@@H](CC(N)=O)C(=O)O)C(C)C)C(C)C)[C@@H](C)O` [RIKRFWPVVIRTVVAGYN] gave an MIC of no less than 69 µM.

As for `CC[C@H](C)[C@H](NC(=O)[C@H](CCCCN)NC(=O)[C@H](Cc1ccccc1)NC(=O)[C@H](C)NC(=O)[C@H](CCCCN)NC(=O)CNC(=O)[C@H](CC(C)C)NC(=O)[C@H](CC(C)C)NC(=O)[C@H](CO)NC(=O)CNC(=O)[C@H](CC(C)C)NC(=O)CN)C(=O)NCC(=O)N[C@@H](CC(C)C)C(=O)N[C@@H](CCCCN)C(=O)N[C@H](C(=O)N[C@H](C(=O)NCC(=O)N[C@@H](CCCCN)C(=O)N[C@@H](CCSC)C(=O)N[C@@H](CCSC)C(=O)NCC(=O)NCC(=O)N[C@@H](C)C(=O)N1CCC[C@H]1C(=O)N[C@@H](CCCNC(=N)N)C(=O)N[C@@H](CCC(=O)O)C(=O)N[C@@H](CCC(N)=O)C(=O)O)C(C)C)[C@@H](C)O` [GLGSLLGKAFKIGLKTVGKMMGGAPREQ], the MIC in assay [1] amounted to 5 µM (≈ 14.2 µg/mL); with Acinetobacter baumannii it was 5.66 µM (≈ 16.1 µg/mL); in assay [6], 25 µM (≈ 71.1 µg/mL); in assay [4], 5 µM (≈ 14.2 µg/mL); against Staphylococcus aureus, 5.66 µM (≈ 16.1 µg/mL).

For the molecule `CC[C@H](C)[C@H](NC(=O)[C@H](CCCCN)NC(=O)[C@H](CCCCN)NC(=O)[C@H](C)NC(=O)[C@H](CC(C)C)NC(=O)[C@H](CCCCN)NC(=O)[C@H](C)NC(=O)[C@H](CC(C)C)NC(=O)[C@H](CC(C)C)NC(=O)[C@H](CCCCN)NC(=O)[C@H](C)NC(=O)[C@@H](N)Cc1ccccc1)C(=O)N[C@@H](CC(C)C)C(N)=O` [FAKLLAKLAKKIL], the MIC in [7] came to 68.6 µM (≈ 99.9 µg/mL); in assay [8], 6.86 µM (≈ 9.99 µg/mL).

On to `CC[C@H](C)[C@H](NC(=O)[C@H](CC(=O)O)NC(=O)[C@@H](NC(=O)[C@H](CCCCN)NC(=O)[C@H](Cc1ccccc1)NC(=O)[C@@H]1CCCN1)[C@@H](C)CC)C(=O)N[C@@H](Cc1cnc[nH]1)C(=O)N[C@@H](CC(C)C)C(=O)NCC(=O)NCC(=O)N[C@@H](Cc1ccc(O)cc1)C(N)=O` [PFKIDIHLGGY], for which the MIC in assay [9] came out at 23.8 µM (≈ 30 µg/mL).

On to `CC(C)C[C@H](NC(=O)[C@H](C)NC(=O)[C@H](CC(C)C)NC(=O)[C@H](CCCCN)NC(=O)[C@H](C)NC(=O)[C@H](CC(C)C)NC(=O)[C@H](CCCCN)NC(=O)[C@H](CCCCN)NC(=O)[C@H](CC(C)C)NC(=O)[C@H](CCCCN)NC(=O)[C@H](CCCCN)NC(=O)[C@H](C)NC(=O)[C@H](CC(C)C)NC(=O)[C@H](CCCCN)NC(=O)[C@H](CCCCN)NC(=O)[C@H](C)NC(=O)[C@@H](N)Cc1ccccc1)C(=O)N[C@@H](C)C(=O)N[C@@H](CCCCN)C(N)=O` [FAKKLAKKLKKLAKLALAK], for which the minimal inhibitory concentration (MIC) in assay [7] and in [8] was 4.74 µM (≈ 10 µg/mL) in each case.

In the case of `CC[C@H](C)[C@H](NC(=O)[C@@H](NC(=O)[C@H](CCCCN)NC(=O)[C@H](CCCCN)NC(=O)[C@H](CC(C)C)NC(=O)CN)C(C)C)C(=O)N[C@@H](CCCCN)C(=O)N[C@@H](CC(C)C)C(=O)N[C@@H](CC(C)C)C(=O)N[C@@H](CCCN=C(N)N)C(=O)N1CCC[C@H]1C(=O)N[C@@H](CC(C)C)C(=O)N[C@@H](CC(C)C)C(=O)O` [GLKKVIKLLRPLL], the MIC in assay [7] is 16 µM (≈ 23.9 µg/mL); in [1], 32 µM (≈ 47.7 µg/mL); in the assay on Acinetobacter baumannii, no less than 32 µM; in assay [4], greater than 64 µM; in [10], greater than 64 µM.

For the molecule `CC(C)C[C@H](NC(=O)[C@H](C)NC(=O)[C@H](CC(C)C)NC(=O)[C@H](C)NC(=O)[C@H](CCCCN)NC(=O)[C@H](CCCCN)NC(=O)[C@H](C)NC(=O)[C@H](CC(C)C)NC(=O)[C@H](CCCCN)NC(=O)[C@H](C)NC(=O)[C@H](CC(C)C)NC(=O)[C@H](CCCCN)NC(=O)[C@H](CCCCN)NC(=O)[C@H](C)NC(=O)[C@@H](N)Cc1ccccc1)C(N)=O` [FAKKLAKLAKKALAL], the values for the MIC in assay [7] and in assay [8] were 15.5 µM (≈ 25 µg/mL) and 62 µM (≈ 99.9 µg/mL), respectively.

For `CC[C@H](C)[C@H](NC(=O)[C@@H](NC(=O)[C@@H]1CCCN1C(=O)[C@@H](NC(=O)[C@@H]1CCCN1C(=O)[C@H](CCCCN)NC(=O)[C@H](CCCCN)NC(=O)[C@H](CO)NC(=O)CN)C(C)C)[C@@H](C)CC)C(=O)N[C@@H](Cc1ccc(O)cc1)C(=O)N[C@H]1CSSC[C@@H](C(=O)N[C@@H](CCC(N)=O)C(=O)N[C@@H](CCCN=C(N)N)C(=O)N[C@@H](CCSC)C(=O)O)NC(=O)[C@H](CCCCN)NC(=O)[C@H](C)NC(=O)[C@H]([C@@H](C)O)NC(=O)[C@H](CCCN=C(N)N)NC(=O)[C@H](CCCN=C(N)N)NC(=O)[C@H](CC(N)=O)NC1=O` [GSKKPVPIIYCNRRTAKCQRM], the MIC in [4] and in [10] was 6.53 µM (≈ 16 µg/mL) throughout.

For the molecule `CC(C)[C@H](NC(=O)[C@H](CCCCN)NC(=O)[C@@H](NC(=O)[C@H](CCC(N)=O)NC(=O)[C@H](CCCCN)NC(=O)[C@H](Cc1c[nH]c2ccccc12)NC(=O)[C@@H](N)CCCN=C(N)N)C(C)C)C(=O)N[C@@H](CCCCN)C(=O)N[C@@H](CCCN=C(N)N)C(=O)O` [RWKQVKVKR], the MIC in [1] was greater than 81.5 µM; in assay [2], 30.5 µM (≈ 37.5 µg/mL); in assay [3], no less than 61.1 µM; in [4], 61.1 µM (≈ 75 µg/mL).

On to `CC(C)C[C@H](NC(=O)[C@H](C)NC(=O)[C@H](CCCCN)NC(=O)[C@H](CCCCN)NC(=O)[C@H](C)NC(=O)[C@H](CC(C)C)NC(=O)[C@H](CCCCN)NC(=O)[C@H](CCCCN)NC(=O)[C@H](CC(C)C)NC(=O)[C@H](CCCCN)NC(=O)[C@H](CCCCN)NC(=O)[C@H](C)NC(=O)[C@H](CC(C)C)NC(=O)[C@H](CCCCN)NC(=O)[C@H](CCCCN)NC(=O)[C@H](CC(C)C)NC(=O)[C@H](C)NC(=O)[C@H](CCCCN)NC(=O)[C@H](CC(C)C)NC(=O)[C@H](C)NC(=O)[C@H](CC(C)C)NC(=O)[C@H](C)NC(=O)[C@@H](N)Cc1ccccc1)C(N)=O` [FALALKALKKLAKKLKKLAKKAL], for which the figures for the MIC in [7] and in assay [8] were 1.97 µM (≈ 5 µg/mL) and 3.94 µM (≈ 10 µg/mL), respectively.

As for `CC(C)C[C@H](NC(=O)CNC(=O)[C@@H](NC(=O)[C@@H]1CCCN1C(=O)[C@H](CC(C)C)NC(=O)CNC(=O)[C@H](CC(N)=O)NC(=O)[C@H](CC(N)=O)NC(=O)[C@H](Cc1ccccc1)NC(=O)[C@@H](NC(=O)[C@H](CCCN=C(N)N)NC(=O)[C@H](CS)NC(=O)[C@H](CCCN=C(N)N)NC(=O)[C@H](Cc1cnc[nH]1)NC(=O)[C@H](CCCCN)NC(=O)[C@H](CCCCN)NC(=O)[C@H](CCCN=C(N)N)NC(=O)[C@@H](N)CCCCN)C(C)C)[C@@H](C)O)C(=O)N[C@@H](Cc1ccc(O)cc1)C(=O)N[C@@H](CCCN=C(N)N)C(=O)N[C@@H](Cc1c[nH]c2ccccc12)C(=O)N[C@@H](CS)C(N)=O` [KRKKHRCRVFNNGLPTGLYRWC], the MIC in assay [8] is 4.1 µM (≈ 11.2 µg/mL).
